What all share (assay): inhibition of tumour cell growth, NCI panel, 48 h
The test system of assay [1] is COLO 205 colon.
Assay [2] has as its system SK-MEL-5 melanoma.
Assay [3] concerns SNB-19 CNS.
For assay [4], the system named is A498 renal.
Assay [5] deals with SN12C renal.
For assay [6], the system named is CAKI-1 renal.
The subject of assay [7] is SF-268 CNS.
The subject of assay [8] is SK-MEL-2 melanoma.
Assay [9] relates to RXF 393 renal.
The subject of assay [10] is TK-10 renal.

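96-well plates; 48 h exposure; 5 concentrations. Endpoints by linear interpolation between flanking doses. Not reached: highest tested concentration assigned. At the GI50, growth is halved. TGI: concentration producing complete growth inhibition.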 Where only a bound is given, the exact number is not on record here.

`CS(=O)(=O)Nc1ccc(Nc2c3ccccc3nc3ccccc23)cc1`: the TGI in [1] was determined as 21 µM; in assay [2], 10.4 µM; in assay [3], 20.3 µM; in assay [4] it was 16.3 µM; in [5] it was 17.1 µM; in assay [6], 6.94 µM. The TGI in assay [7] was 24.5 µM; in assay [8], 16.1 µM; in [9], 23.3 µM; in assay [10] it was 9.52 µM.

With `O=C(NC1=NC2C=CC([N+](=O)[O-])=CC2S1)C(=O)Nn1c(=S)[nH]c2ccccc2c1=O` (stereo unspecified), the TGI in assay [2] was above 100 µM; in assay [3], 72.7 µM; in assay [4], above 100 µM; in assay [5], above 100 µM; in assay [6], above 100 µM; in assay [7], above 100 µM. The TGI in [8], in assay [9] and in [10] was above 100 µM in each case.

As for `CCOC(=O)c1c(C(F)(F)F)n([O-])c2ccc(OC)cc2[n+]1=O`, the GI50 in assay [1] was 4.13 µM; in assay [2], 1.7 µM; in assay [3] it was 3.77 µM; in [4], 11.3 µM; in assay [5], 2.84 µM; in assay [6] it was 3460 nM. The GI50 is 4.65 µM in [7], 19.2 µM in [8], 23.8 µM in assay [9] and 9.68 µM in assay [10]. Further, the TGI in assay [1] amounted to 16.2 µM; in assay [2], 3.31 µM; in [3], 56.6 µM; in [4], 33.7 µM; in assay [5], 22.2 µM; in assay [6], 19.9 µM. The TGI is 72.5 µM in assay [7], 54.4 µM in [8], above 100 µM in assay [9] and above 100 µM in assay [10].

Turning to `C[C@@]12CCC(=O)C=C1CC[C@H]1C2=CC[C@]2(C)C1CC[C@@]2(C)O` (stereo partly specified), the TGI in [1], in [2], in assay [3], in assay [4], in assay [5] and in [6] was above 100 µM in each case. For the same compound, the TGI in assay [7], in [8], in [9] and in [10] was above 100 µM each time.

Regarding `N#Cc1ccnc(N2C(=O)CC[C@H]2C(=O)N(c2cncc(F)c2)[C@H](C(=O)NC2CC(F)(F)C2)c2ccccc2Cl)c1`, the GI50 in assay [1] was above 100 µM; in assay [2], above 100 µM; in assay [3], above 100 µM; in [4] it was 81.7 µM; in assay [5] it was 60.8 µM; in assay [6], above 100000 nM. Besides, the GI50 in [7] is 56.2 µM; in assay [8], above 100 µM; in [9], above 100 µM. Further, the TGI in assay [1], in assay [2], in assay [3], in assay [4], in assay [5] and in [6] was above 100 µM throughout. Also, the TGI in assay [7], in assay [8] and in [9] was above 100 µM in each case.

In the case of `CC12CCC[C@@](C)(C(=O)OC3OC(CO)C(O)C(O)C3O)[C@H]1CCC13CC4CC(OC4(CO)[C@H]1O)[C@@H]23` (stereo partly specified), the TGI in [2], in [3], in assay [4], in assay [5], in [6] and in [7] was above 100 µM in each case. Further, the TGI in assay [8], in assay [9] and in assay [10] was above 100 µM each time.

`COc1ccc2c(c1)CC[C@@H]1[C@@H]2CC[C@]2(C)C(c3ccco3)=C(C=O)C[C@@H]12`: the GI50 in assay [1] is 3.58 µM; in [2], 5.72 µM; in assay [3], 9.3 µM; in assay [4], 26.1 µM; in [5] it was 23.1 µM; in assay [6] it was 2500 nM. The GI50 in assay [7] is 13.6 µM; in assay [8] it was 29.2 µM; in assay [9], 0.484 µM; in assay [10], 4.93 µM. In addition, the TGI in assay [1] was above 100 µM; in assay [2], 19 µM; in assay [3] it was above 100 µM; in assay [4] it was 64.8 µM; in assay [5], 95.2 µM; in assay [6], 7.59 µM. Also, the TGI in assay [7] was above 100 µM; in assay [8], 88.1 µM; in assay [9], 27.6 µM; in [10], 21.2 µM.

As for `COc1ccc2c(c1)CCC1C2CC[C@]2(C)/C(=N/OC(=O)Cc3ccccc3)CCC12` (stereo partly specified), the GI50 in assay [1] was 21.7 µM; in assay [2], 12.5 µM; in assay [3], 18 µM; in [4] it was 21.6 µM; in assay [5], 20.6 µM; in [6], 16000 nM. The GI50 in [7] was 18.7 µM; in assay [8], 18.6 µM; in [9], 23.3 µM; in [10], 37.7 µM. In addition, the TGI in assay [1] was 58.6 µM; in [2], 29.5 µM; in assay [3] it was 36.7 µM; in assay [4], 45.8 µM; in assay [5] it was 43.6 µM; in assay [6], 30.9 µM. Also, the TGI in assay [7] stood at 34.4 µM; in assay [8], 48.6 µM; in [9], 47.9 µM; in [10], 97.1 µM.

As for `COc1ccc(/C=C/c2n[nH]c3ccc(N4CCOC4=O)cc23)cc1`, the GI50 in assay [1] is 0.501 µM; in [2], 2.15 µM; in assay [3], 3.12 µM; in [4], 3.57 µM; in assay [5], 2.14 µM; in assay [6] it was 2480 nM. The GI50 is 3.64 µM in [7], 2.53 µM in [8], 1.87 µM in assay [9] and 3.12 µM in [10]. Moreover, the TGI is 3.05 µM in assay [1]; 5.66 µM in assay [2]; above 100 µM in assay [3]; 7.01 µM in assay [4]; above 100 µM in assay [5]; above 100 µM in assay [6]. Further, the TGI in assay [7] was above 100 µM; in [8], 6.21 µM; in assay [9], 3.8 µM; in assay [10], 26.2 µM.

`Nc1nc2nc[nH]c2c(=O)[nH]1`: the TGI in [1], in assay [2], in assay [4], in assay [5], in assay [6] and in [7] was above 100 µM in each case. In addition, the TGI in assay [8], in assay [9] and in assay [10] was above 100 µM throughout.

Turning to `O=C(COc1ccccc1)NS(=O)(=O)c1ccccc1`, the TGI in assay [1], in [3], in assay [4], in [5], in assay [6] and in assay [7] was above 100 µM in each case. Also, the TGI in assay [8], in assay [9] and in assay [10] was above 100 µM each time.

For `COC(=O)C1=C(C(=O)OC)C23C=C(C)C1C2=C(C)C1(CC1)[C@@](C)(O)C3=O` (stereo partly specified), the GI50 in assay [1] is 0.35 µM; in [2], 0.164 µM; in assay [3], 0.359 µM; in [4], 0.188 µM; in assay [5], 0.435 µM; in assay [7], 0.273 µM. Also, the GI50 is 0.25 µM in assay [8], 0.179 µM in [9] and 1.35 µM in assay [10]. The TGI in assay [1] turned out to be 1.62 µM; in assay [2] it was 0.314 µM; in [3], 13.5 µM; in [4] it was 0.49 µM; in [5], 13.3 µM; in assay [7], 3.07 µM. The TGI in assay [8] was determined as 0.63 µM; in assay [9], 0.341 µM; in assay [10], 11.3 µM.

On to `COc1ccc2c(c1)OC[C@@H]1c3cc4c(cc3O[C@H]21)OCO4`, for which the TGI in assay [1], in [2], in [3], in assay [4], in assay [6] and in assay [7] was above 100 µM in each case. Moreover, the TGI in assay [8], in assay [9] and in assay [10] was above 100 µM in each case.

In the case of `C=C(C)[C@@H]1CC[C@]2(C)[C@H](CC[C@@H]3[C@H]4[C@H]5OC[C@@]4(CCC5(C)C)CC[C@]32C)[C@@]1(C)CCCN`, the GI50 in assay [1] was 2.15 µM; in assay [2] it was 1.91 µM; in assay [3], 1.78 µM; in assay [4], 1.72 µM; in [5], 1.63 µM; in assay [6], 1620 nM. Besides, the GI50 in [7] is 1.81 µM; in assay [9], 1.64 µM; in [10], 1.55 µM. The TGI stood at 4.65 µM in [1]; 3.55 µM in assay [2]; 3.24 µM in [3]; 3.12 µM in [4]; 3.2 µM in [5]; 3 µM in [6]. The TGI in assay [7] stood at 3.8 µM; in assay [9] it was 3.07 µM; in [10], 3.2 µM.

With `O=C(Nc1nc2ncn(CC(COc3ccccc3)OC(=O)c3ccccc3)c2c(=O)[nH]1)c1ccccc1` (stereo unspecified), the TGI in assay [2], in assay [3], in assay [4], in assay [5], in assay [6] and in assay [8] was above 100 µM each time. This compound gave a TGI in assay [9] above 100 µM.

As to `COc1ccc(-c2ccc(C3CC(c4ccc(Cl)cc4)=NN3)o2)c([N+](=O)[O-])c1` (stereo unspecified), the GI50 in assay [1], in [2], in [3], in assay [4], in assay [7] and in assay [8] was above 100 µM each time. Besides, the GI50 in assay [9] and in assay [10] was above 100 µM each time. Also, the TGI in assay [1], in [2], in assay [3], in assay [4], in [7] and in assay [8] was above 100 µM throughout. Further, the TGI in [9] and in [10] was above 100 µM throughout.

On to `C[C@@H]1C=C2C(=O)O[C@@H]3CC[C@H](C1)[C@]23O`, for which the GI50 in [1] was 4.64 µM; in [2] it was 10.9 µM; in assay [3], 22.9 µM; in assay [5], 5.65 µM; in assay [7], 5.24 µM. The TGI in [1] was determined as 15.7 µM; in assay [2], 24 µM; in assay [3], 93.8 µM; in [4], 38.3 µM; in assay [5] it was 31.2 µM; in [6], 12.7 µM. The figures for the TGI in assay [7], in assay [8] and in [9] were 30.4 µM, 11.4 µM and 7.97 µM, respectively.

`N#Cc1cc([N+](=O)[O-])ccc1NC(=O)C(=O)C(C(=O)/C=C/c1ccccc1)C1OC(=O)c2ccccc21` (stereo unspecified): the TGI in [1], in assay [2], in assay [3], in assay [4], in [5] and in assay [6] was above 100 µM throughout. The TGI in assay [7], in [9] and in [10] was above 100 µM each time.

With `COc1ccc(C2=NN(C(C)=O)C(c3cn(-c4ccccc4)nc3-c3ccc(Cl)cc3)C2)cc1` (stereo unspecified), the GI50 in assay [1] was above 100 µM; in assay [2], above 100 µM; in assay [4], 99.5 µM; in assay [5], above 100 µM; in assay [6], above 100000 nM; in [7] it was 6.2 µM. The GI50 was above 100 µM in assay [8] and 10.5 µM in assay [9]. The TGI in assay [1], in assay [2], in assay [4], in assay [5], in [6] and in [7] was above 100 µM each time. Further, the TGI in assay [8] and in assay [9] was above 100 µM throughout.

These data come from PubChem BioAssay (NCI).
